Legend:
Type in all cases: cell-based
NCI-H460 = test: NCI screen, growth of human tumor cells: Non-Small Cell Lung NCI-H460; conditions: NCI-H460 (Non-Small Cell Lung), 10^−4 molar
Description: (§1) In the NCI screening process, each compound was tested and described by a minimum of 60 data points. The test data include, but are not limited to the type of cancer, the molar concentration used in the screen, and the percent growth of the cancer. In some cases, NMR and elemental analysis were used for structural assignment.

OVCAR-8 = test: NCI screen, growth of human tumor cells: Ovarian Cancer OVCAR-8; conditions: OVCAR-8 (Ovarian Cancer), 10^−4 molar
Description: as §1

ACHN = test: NCI screen, growth of human tumor cells: Renal Cancer ACHN; conditions: ACHN (Renal Cancer), 10^−4 molar
Description: as §1

MALME-3M = test: NCI screen, growth of human tumor cells: Melanoma MALME-3M; conditions: MALME-3M (Melanoma), 10^−4 molar
Description: as §1

human cancer cells = test: NCI screen summary over the cancers tested (negative growth of human cancer cells); conditions: 10^−4 M conc.; cancers with negative growth / cancers tested
Description: as §1
The derivatives in the tables are grouped using the same category as in the tables 1-6.

NCI-H23 = test: NCI screen, growth of human tumor cells: Non-Small Cell Lung NCI-H23; conditions: NCI-H23 (Non-Small Cell Lung), 10^−4 molar
Description: as §1

IGROVI = test: NCI screen, growth of human tumor cells: Ovarian Cancer IGROVI; conditions: IGROVI
Description: as §1

MDA-MB-231/ATCC = test: NCI screen, growth of human tumor cells: Breast Cancer MDA-MB-231/ATCC; conditions: MDA-MB-231/ATCC (Breast Cancer), 10^−4 molar
Description: as §1

COLO205 = test: NCI screen, growth of human tumor cells: Colon Cancer COLO205; conditions: COLO205 (Colon Cancer), 10^−4 molar
Description: as §1

OVCAR-3 = test: NCI screen, growth of human tumor cells: Ovarian Cancer OVCAR-3; conditions: OVCAR-3 (Ovarian Cancer), 10^−4 molar
Description: as §1

HCT-15 = test: NCI screen, growth of human tumor cells: Colon Cancer HCT-15
Description: as §1

M14 = test: NCI screen, growth of human tumor cells: Melanoma M14; conditions: M14 (Melanoma), 10^−4 molar
Description: as §1

HCT-116 = test: NCI screen, growth of human tumor cells: Colon Cancer HCT-116; conditions: HCT-116 (Colon Cancer), 10^−4 molar
Description: as §1

MCF 7 = test: NCI screen, growth of human tumor cells: Breast Cancer MCF 7; conditions: MCF 7 (Breast Cancer), 10^−4 molar
Description: as §1

EKVX = test: NCI screen, growth of human tumor cells: Non-Small Cell Lung EKVX; conditions: EKVX
Description: as §1

CAKI-1 = test: NCI screen, growth of human tumor cells: Renal Cancer CAKI-1; conditions: CAKI-1 (Renal Cancer), 10^−4 molar
Description: as §1

PC-3 = test: NCI screen, growth of human tumor cells: Prostate Cancer PC-3; conditions: PC-3 (Prostate Cancer), 10^−4 molar
Description: as §1

MCF7/ADR-RES = test: NCI screen, growth of human tumor cells: Breast Cancer MCF7/ADR-RES; conditions: MCF7/ADR-RES (Breast Cancer), 10^−4 molar
Description: as §1

O=C(c1ccccc1S(=O)(=O)O)C1S(=O)(=O)OCCOS1(=O)=O [NSC 693880]
percent of growth of human tumor cells (NCI-H460): −11%
percent of growth of human tumor cells (OVCAR-8): −33%
percent of growth of human tumor cells (ACHN): 8%
percent of growth of human tumor cells (MALME-3M): −15%
Percentage of cancers showing negative growth cancers tested (human cancer cells): 10^−4 M conc. = 8/17 = 47%
percent of growth of human tumor cells (NCI-H23): 12%
% Growth (IGROVI; 10^−4 molar): −21%
% Growth (IGROVI; 10^−5 molar): 37%
% Growth (IGROVI; 10^−6 molar): 60%
percent of growth of human tumor cells (MDA-MB-231/ATCC): 25%
percent of growth of human tumor cells (COLO205): 5%
percent of growth of human tumor cells (OVCAR-3): 76%
% Growth (HCT-15; HCT-15, 10^−4 molar): −41%
% Growth (HCT-15; HCT-15, 10^−5 molar): 40%
percent of growth of human tumor cells (M14): −4%
percent of growth of human tumor cells (HCT-116): 20%
percent of growth of human tumor cells (MCF 7): −1%
% Growth (EKVX; 10^−4 molar): 25%
% Growth (EKVX; 10^−5 molar): 6%
percent of growth of human tumor cells (CAKI-1): −8%
percent of growth of human tumor cells (PC-3): 5%
percent of growth of human tumor cells (MCF7/ADR-RES): 4%
